Experimental data reported in patent publication US7037693B2, “Muskmelon (Cucumis melo) hydroperoxide lyase and uses thereof” (Vanderbilt University, priority 2000, dated 2006).
Several values for one entry are separate records, joined by “and”; a condition that tells them apart may be missing. Equal values may be shown once. Blank lines part the entries; values can stand above or below the molecule they belong to.

Legend:
[1] = molecular target: melon 9-hydroperoxide lyase (9-HPL) (Cucumis melo, UniProt A0A1S3BZK9); assay: Kinetics of melon 9-HPL with fatty acid hydroperoxide substrates (spectrophotometric assay, decrease in absorbance at 235 nm); type: biochemical; conditions: relative to 9-hydroperoxylinolenic acid; 'preferably approximately' value
Description: The resulting pellet of cells was resuspended in Tris-acetate buffer (0.1 M, pH 7.6) containing sucrose (0.5 M), EDTA (0.5 mM) and lysozyme (1 mg/ml). After 30 min on ice, the mixture was centrifuged as before to obtain a pellet of spheroplastes. These were resuspended in potassium phosphate buffer (0.1 M, pH 7.6) containing magnesium acetate (6 mM), glycerol (20% v/v) and DTT (0.1 mM) and the mixture left for 10 min at −80° C. Following this, a protease inhibitor was added (PMSF, 1 mM) and the cells sonicated (2×30 seconds). […] Compared to the control protein produced from vector alone with no cDNA insert, there was less protein, but the bacterial lysates of each gave easily measurable catalytic activity. By monitoring the disappearance of the UV-235 nm absorbance of the fatty acid hydroperoxide substrates, less than 1 μl (<10 μg crude protein) of the suspended and lysed bacterial pellets were required in order to observe reaction in a 1 ml UV cuvette. Measurement was made using the spectrophotometric assay (decrease in absorbance at 235 nm) and the initial rates of reaction. The turnover number of the purified 9-HPL enzyme (number of product molecules formed per molecule of enzyme) using 9S-hydroperoxylinoleic acid as substrate was calculated from the known concentration of the enzyme (measured at the Soret maximum at 416 nm, and using a molar extinction coefficient of 100,000), and the measured rates of change of substrate concentration (using the molar extinction coefficient of 23,000 at 235 nm of the conjugated diene).

[2] = substrate: CCCCC/C=C\C=C\[C@H](CCCCCCCC(=O)O)OO; assay: as above; type: biochemical, Cucumis melo; conditions: 95% confidence limits given; pH 7.6
Description: (§1) The resulting pellet of cells was resuspended in Tris-acetate buffer (0.1 M, pH 7.6) containing sucrose (0.5 M), EDTA (0.5 mM) and lysozyme (1 mg/ml). After 30 min on ice, the mixture was centrifuged as before to obtain a pellet of spheroplastes. These were resuspended in potassium phosphate buffer (0.1 M, pH 7.6) containing magnesium acetate (6 mM), glycerol (20% v/v) and DTT (0.1 mM) and the mixture left for 10 min at −80° C. Following this, a protease inhibitor was added (PMSF, 1 mM) and the cells sonicated (2×30 seconds). […] By monitoring the disappearance of the UV-235 nm absorbance of the fatty acid hydroperoxide substrates, less than 1 μl (<10 μg crude protein) of the suspended and lysed bacterial pellets were required in order to observe reaction in a 1 ml UV cuvette. Measurement was made using the spectrophotometric assay (decrease in absorbance at 235 nm) and the initial rates of reaction. The turnover number of the purified 9-HPL enzyme (number of product molecules formed per molecule of enzyme) using 9S-hydroperoxylinoleic acid as substrate was calculated from the known concentration of the enzyme (measured at the Soret maximum at 416 nm, and using a molar extinction coefficient of 100,000), and the measured rates of change of substrate concentration (using the molar extinction coefficient of 23,000 at 235 nm of the conjugated diene).

[3] = substrate: CC/C=C\C[C@@H](/C=C/C=C\CCCCCCCC(=O)O)OO; assay: as above; type: biochemical, Cucumis melo; conditions: 95% confidence limits given; pH 7.6
Description: as §1

[4] = pH dependence of the activity of the lyase; type: biochemical, Cucumis melo

Molecule: CC/C=C\C[C@@H](/C=C/C=C\CCCCCCCC(=O)O)OO [13-hydroperoxylinolenic acid, (9Z, 11E, 13S, 15Z) 13-hydroperoxyoctadeca-9,11,15-trienoic acid]
Vmax as percentage of the Vmax of the lyase for 9-hydroperoxylinolenic acid [1]: approximately 22%

Molecule: CCCCC/C=C\C=C\[C@H](CCCCCCCC(=O)O)OO [9-hydroperoxylinoleic acid, (9S, 10E, 12Z) 9-hydroperoxyoctadeca-10,12-dienoic acid]
Km as percentage of the Km of the lyase for 9-hydroperoxylinolenic acid [1]: approximately 54%
Vmax as percentage of the Vmax of the lyase for 9-hydroperoxylinolenic acid [1]: approximately 55%

B1: melon 9-hydroperoxide lyase (9-HPL) (Cucumis melo) (protein)
chain: MATPSSSSPELPLKPIPGGYGFPFLGPIKDRYDYFYFQGRDEFFRSRITKYNSTVFRANMPPGPFISSDSRVVVLLDALSFPILFDTAKVEKRNILDGTYMPSLSFTGNIRTCAYLDPSETEHSVLKRLFLSFLASRHDRFIPLFRSSLSEMFVKLEDKLSEKKKIADFNSISDSMSFDYVFRLLSDGTPDSKLAAEGPGMFDLWLVFQLAPLASIGLPKIFSVFEDLVIHTIPLPFFPVKSGYRKLYEAFYSSSGSFLDEAEKQGIDREKACHNLVFLAGFNAYGGMKVLFPTLLKWVGTAGEDLHRKLAEEVRTTVKEEGGLTFSALEKMSLLKSVVYEALRIEPPVPFQYGKAKEDIVIQSHDSSFKIKKGETIFGYQPFATKDPKIFKDSEKFVGDRFVGEEGEKLLKYVYWSNERETVEPTAENKQCPGKNLVVLIGRIMVVEFFLRYDTFTVEVADLPLGPAVKFKSLTRATDMV
Km [2]: 192 µM
Km [3]: 50 µM and 51 µM

Results, then the molecule that gave them:

Vmax as percentage of the Vmax of the lyase for 9-hydroperoxylinolenic acid [1]: approximately 30%
Molecule: CCCCC[C@@H](/C=C/C=C\CCCCCCCC(=O)O)OO [13-hydroperoxylinoleic acid, (9Z,11E,13S)13-hydroperoxyoctadeca-9,11-dienoic acid]

activity as percentage of maximal activity ([4]; pH 5.0): approximately 25%
activity as percentage of maximal activity ([4]; pH 9.0): approximately 15%
B2: lyase: fatty acid 9-hydroperoxide lyase of muskmelon (Cucumis melo), SEQ ID NO:7, recombinantly expressed in E. coli (protein)
chain: MATPSSSSPELPLKPIPGGYGFPFLGPIKDRYDYFYFQGRDEFFRSRITKYNSTVFRANMPPGPFISSDSRVVVLLDALSFPILFDTAKVEKRNILDGTYMPSLSFTGNIRTCAYLDPSETEHSVLKRLFLSFLASRHDRFIPLFRSSLSEMFVKLEDKLSEKKKIADFNSISDSMSFDYVFRLLSDGTPDSKLAAEGPGMFDLWLVFQLAPLASIGLPKIFSVFEDLVIHTIPLPFFPVKSGYRKLYEAFYSSSGSFLDEAEKQGIDREKACHNLVFLAGFNAYGGMKVLFPTLLKWVGTAGEDLHRKLAEEVRTTVKEEGGLTFSALEKMSLLKSVVYEALRIEPPVPFQYGKAKEDIVIQSHDSSFKIKKGETIFGYQPFATKDPKIFKDSEKFVGDRFVGEEGEKLLKYVYWSNERETVEPTAENKQCPGKNLVVLIGRIMVVEFFLRYDTFTVEVADLPLGPAVKFKSLTRATDMV
modifications: Cucumis melo
